Test results taken from patent publication US20110293653A1, “ANTAGONISTS OF MIR-155 FOR THE TREATMENT OF INFLAMMATORY LIVER DISEASE” (UNIVERSITY OF MASSACHUSETTS, priority 2010, published 2011).
Entries after “also recorded” stand apart in the source; their conditions may differ. Where a SMILES comes first, the peptide text is derived from it. The star is where a group is joined. Cbz = O=C(OCc1ccccc1)*

Test system: miR155
Test: miR155 expression (qPCR) in RAW cells after ethanol and/or LPS stimulation with NF-κB inhibitor
Type: cell-based
Conditions: RAW cells pretreated 48 h with ethanol (50 mM) and MG-132 (0.25 μM) or Bay 11-7082 (0.1 uM), LPS 100 ng/mL 2 h
Protocol: FIG. 8. […] RAW cells were exposed or not to ethanol (50 mM) and MG-132 (0.25 μM) for 48 hours and were further stimulated with LPS (100 ng/mL) for 2 hours. Expression of miR155 was assayed by qPCR and data were normalized to sno202 control. The fold increase in the expression of miR155 versus nonstimulated cells is shown. Data represent the mean value (s.e.m. as error bars) of at least three independent experiments. Statistically significant differences are shown.
C. Cell culture and reagents. RAW 264.7 macrophages were purchased from American Type Culture Collection and maintained in Dulbecco's modified medium (Invitrogen Life Technologies, Carlsbad, Calif.) containing 10% FBS (HyClone, South Logan, Utah) at 37° C. in a 5% CO2 atmosphere. […]
E. RNA analysis. RNA was purified using the RNeasy kit (Qiagen Sciences, Maryland, USA) or mirVana™ miRNA Isolation Kit (Ambion) if miRs were to be analyzed. […] Quantitative RT-PCR analyses for miR-125b, miR-146aa, miR155 and sno202, used as normalizing control, were performed using TaqMan miRNA assays with reagents, primers, and probes obtained from Ambion. […] Real-time quantitative polymerase chain reaction was performed using the iCycler (Bio-Rad Laboratories Inc., Hercules, Calif.), as described previously (Romics et al., supra). […] Relative expression was calculated using the comparative threshold cycle (Ct) method. […]

Row | Compound | miR155 levels after ethanol and/or LPS stimulation
1 | Cc1ccc(S(=O)(=O)/C=C/C#N)cc1 [Bay 11-7082] | decrease
2 | CC(C)C[C@@H](C=O)NC(=O)[C@H](CC(C)C)NC(=O)[C@H](CC(C)C)NC(=O)OCc1ccccc1 [MG-132] (Cbz-Leu-Leu-Leu-aldehyde) | decrease; also recorded: prevented miR155 increase
